Reference: patent publication US12594264B2, “Modulators of alpha-synuclein proteolysis and associated methods of use” (Arvinas Operations, Inc., priority 2018, dated 2026)

How the values were obtained:
[1] = tested on: PFF induced HEK293 TREX α-syn A53T cells; experiment: Cytotoxicity by visual inspection of treated cells; format: cell-based, human; conditions: 1 μM
Description: (§1) Targeted degradation of sarkosyl insoluble (SI) α-synuclein via exemplary bifunctional compounds was assessed by MJFF-14-6-4-2 conformation specific ELISA following treatment of PFF induced A53T α-synuclein overexpressing HEK293 cells with 1 μM exemplary compound compared to DMSO vehicle control. Degradation activity of the exemplary compounds of Table 2 is expressed as % DMSO control. […] However, the effect of bifunctional targeting degraders, shown in FIG. 5, required the intact E3 ligase binding domain.
(§2) Trex293 (doxycycline inducible) cells stably expressing human α-SYN A53T (monoclonal) were plated in poly-d-lysine coated T-75 tissue culture flasks (4.5×10e6 cells/flask) in DMEM with 10% tet-free FBS, 10 μg/ml blasticidin, and 400 μg/ml zeocin. After an overnight incubation, the cells were induced to express α-SYN by treatment with 1 μg/ml doxycycline (Dox) and exemplary bifunctional compound. After a 24 hour dox induction, the medium on the cells was changed to Opti-MEM followed by treatment with α-SYN pre-formed fibrils** (PFFs)(5 μg/flask) pre-complexed with Lipofectamine 2000 transfection reagent for 4 hours. After PFF treatment, the medium was changed back to DMEM with the supplements described above and exemplary bifunctional compound for 48 hours.
To assess targeted degradation of sarkosyl insoluble α-synuclein, exemplary bifunctional compounds designed to bind to oligomeric α-synuclein were tested at 1 μM in PFF induced HEK293 TREX α-syn A53T cells.

[2] = target: T1, sarkosyl insoluble (SI) α-synuclein (human α-SYN A53T) (Homo sapiens, UniProt P37840, A53T); experiment: MJFF-14-6-4-2 conformation specific ELISA of sarkosyl insoluble α-synuclein after compound treatment; format: cell-based; conditions: 1 μM compound; protein remaining relative to DMSO control; PFF induced A53T α-synuclein overexpressing HEK293 cells; read-out: Protein Degradation at 1 μM
T1 construct: expressed in transfected cells
Description: as §1, §2
Cell pellets were harvested from each flask using 0.25% trypsin followed by spinning at 500×g for 5 minutes. Each pellet was resuspended in 1 ml cold buffer H [Buffer H-10 mM Tris, 1 mM EGTA, 0.8M NaCl, 10% sucrose, pH7.4 containing 1× protease and phosphatase inhibitors] containing protease and phosphatase inhibitors. The resuspended pellets were incubated on ice for 20 minutes followed by centrifugation at 27,200×g for 20 minutes at 4° C. The supernatants were adjusted to 1% sarkosyl (Sigma) and 1% 2-mercaptoethanol followed by incubation for 1 hour at 37° C. on an orbital shaker set to 400 rpm. The samples were then spun at 150,000×g for 35 minutes at room temperature. The supernatant was removed and saved as the soluble fraction and the insoluble pellet was resuspended in 25 μl tris-buffered saline (TBS). Protein concentrations were determined by NanoDrop, and normalized protein concentrations were analyzed by WES capillary electrophoresis as well as an α-SYN oligomer ELISA.
Recombinant human α-SYN was purchased from Proteos. 1 mg aliquots were supplied at 10 mg/ml in 10 mM Tris, 50 mM NaCl, pH7.6. The aliquot was thawed on ice followed by centrifugation at 4° C. for 10 minutes at 12,000×g to pellet any insoluble material. The supernatant was removed and quantitated on a NanoDrop (A280) using Beer's Law (ε=5960 M-1 cm-1). The concentration was adjusted to 5 mg/ml in PBS followed by vortexing for 3 seconds to mix contents. The mixture was incubated in an orbital shaker set to 37° C. at 1,000 rpm for 7 days followed by aliquoting into individual use vials. Prior to addition to cells, an aliquot was thawed at room temperature, then diluted to 1 mg/ml with phosphate-buffered saline (PBS) followed by sonication for 1 minute with a probe sonicator (output 1; 90% duty cycle) in a chem hood.
Coming Costar high bind black well plates were coated with MJFR 14-6-4-2 (Abcam) at 1 μg/ml for 1 hour at 37° C. followed by washing with 1×TBS+0.1% tween-20 (TBS-T) then blocking with 3% bovine serum albumin (BSA) in TBS. After re-washing, samples were added after dilution in diluent (1% BSA/TBS-T). Non-sonicated PFF was used to generate a standard curve. The plates were incubated with sample overnight at 4° C. with shaking. The following day alkaline phosphatase (AP) conjugated MJFR 14-6-4-2 was added to the plate without washing followed by incubation at room temperature for 1 hour with shaking or rocking. The plates were then re-washed and substrate (CDP star alkaline phosphatase detection reagent) was added followed by a 30 minute incubation at room temperature. The plate was read on a luminescence plate reader. The counts were log transformed and read off the standard curve. […]

remaining activity at 1 µM [2] [%]	SMILES	Cytotoxicity at the concentration tested [1]	other results
	O=C1CCC(N2C(=O)c3ccc(OCCOCCOCCOCCOc4ccc5c(c4)Sc4cc([N+](=O)[O-])ccc4N5)cc3C2=O)C(=O)N1 (stereo not shown) [Exemplary Compound 13, 2-(2,6-dioxo-3-piperidyl)-5-[2-[2-[2-[2-[(7-nitro-10H-phenothiazin-3-yl)oxy]ethoxy]ethoxy]ethoxy]ethoxy]isoindoline-1,3-dione]	cytotoxicity	Cytotoxicity at the concentration tested ([1]; listed as 13): cytotoxic
> 120	Cc1ncsc1-c1ccc([C@H](C)NC(=O)[C@@H]2C[C@@H](O)CN2C(=O)[C@@H](NC(=O)COCCOCCOCCOCCOCCOCCOc2ccc3c(c2)Sc2cc([N+](=O)[O-])ccc2N3)C(C)(C)C)cc1 [Exemplary Compound 12, (2S,4R)-1-((S)-2-(tert-butyl)-23-((7-nitro-10H-phenothiazin-3-yl)oxy)-4-oxo-6,9,12,15,18,21-hexaoxa-3-azatricosanoyl)-4-hydroxy-N-((S)-1-(4-(4-methylthiazol-5-yl)phenyl)ethyl)pyrrolidine-2-carboxamide]	cytotoxicity	Cytotoxicity at the concentration tested ([1]; listed as 12): cytotoxic
> 120	COc1ccc2nc(-c3ccc(N4CC(OC5CCN(CCCCCOc6ccc7c(c6)C(=O)N(C6CCC(=O)NC6=O)C7=O)CC5)C4)cc3)sc2c1 (stereo not shown) [Exemplary Compound 25, 2-(2,6-dioxopiperidin-3-yl)-5-([5-[4-([1-[4-(6-methoxy-1,3-benzothiazol-2-yl)phenyl]azetidin-3-yl]oxy)piperidin-1-yl]pentyl]oxy)-2,3-dihydro-1H-isoindole-1,3-dione]	cytotoxicity	Cytotoxicity at the concentration tested ([1]; listed as 25): cytotoxic
< 35	CNc1ccc(-c2nc3ccc(OCCOCCOCCOCCOCCOCCOCC(=O)N[C@H](C(=O)N4C[C@H](O)C[C@H]4C(=O)N[C@@H](C)c4ccc(-c5scnc5C)cc4)C(C)(C)C)cc3s2)cc1 [Exemplary Compound 5, (2S,4R)-1-((S)-2-(tert-butyl)-23-((2-(4-(methylamino)phenyl)benzo[d]thiazol-6-yl)oxy)-4-oxo-6,9,12,15,18,21-hexaoxa-3-azatricosanoyl)-4-hydroxy-N-((S)-1-(4-(4-methylthiazol-5-yl)phenyl)ethyl)pyrrolidine-2-carboxamide]	without any visual impact to cell health	
> 120	COc1cc(/C=C/c2ccc3cc(OCCOCCOCCOCCOc4ccc5c(c4)C(=O)N(C4CCC(=O)NC4=O)C5=O)ccc3n2)ccn1 (stereo not shown) [Exemplary Compound 36, 2-(2,6-dioxo-3-piperidyl)-5-[2-[2-[2-[2-[[2-[(E)-2-(2-methoxy-4-pyridyl)vinyl]-6-quinolyl]oxy]ethoxy]ethoxy]ethoxy]ethoxy]isoindoline-1,3-dione]		
70 to 120	COc1cc(/C=C/c2ccc3cc(OCCOCCOCCOc4ccc5c(c4)C(=O)N(C4CCC(=O)NC4=O)C5=O)ccc3n2)ccn1 (stereo not shown) [Exemplary Compound 47, (E)-2-(2,6-dioxopiperidin-3-yl)-5-(2-(2-(2-((2-(2-(2-methoxypyridin-4-yl)vinyl)quinolin-6-yl)oxy)ethoxy)ethoxy)ethoxy)isoindoline-1,3-dione]		
70 to 120	Cc1ncsc1-c1ccc([C@H](C)NC(=O)[C@@H]2C[C@@H](O)CN2C(=O)[C@@H](NC(=O)COCCOCCOc2ccc3c(c2)Sc2cc([N+](=O)[O-])ccc2N3)C(C)(C)C)cc1 [Exemplary Compound 8, (2S,4R)-1-[(2S)-3,3-dimethyl-2-[[2-[2-[2-[(7-nitro-10H-phenothiazin-3-yl)oxy]ethoxy]ethoxy]acetyl]amino]butanoyl]-4-hydroxy-N-[(1S)-1-[4-(4-methylthiazol-5-yl)phenyl]ethyl]pyrrolidine-2-carboxamide]		
35 to 70	CN(C)c1ccc2c(c1)Sc1cc(OCCOCCOCCOCCOCCOc3ccc4c(c3)C(=O)N(C3CCC(=O)NC3=O)C4=O)ccc1N2 (stereo not shown) [Exemplary Compound 21, 5-((14-((7-(dimethylamino)-10H-phenothiazin-3-yl)oxy)-3,6,9,12-tetraoxatetradecyl)oxy)-2-(2,6-dioxopiperidin-3-yl)isoindoline-1,3-dione]		
	Cc1ncsc1-c1ccc([C@H](C)NC(=O)[C@@H]2C[C@@H](O)CN2C(=O)[C@@H](NC(=O)COCCOCCOc2ccc(CN3C(=O)C(=CC=Cc4ccc([N+](=O)[O-])cc4)c4ccccc43)cc2)C(C)(C)C)cc1 (single isomer, unassigned) [Exemplary Compound 6]	without any visual impact to cell health	
35 to 70	CNc1ccc(-c2nc3ccc(OCCOCCOCCOCC(=O)N[C@H](C(=O)N4C[C@H](O)C[C@H]4C(=O)N[C@@H](C)c4ccc(-c5scnc5C)cc4)C(C)(C)C)cc3s2)cc1 [Exemplary Compound 2, (2S,4R)-1-((S)-2-(tert-butyl)-14-((2-(4-(methylamino)phenyl)benzo[d]thiazol-6-yl)oxy)-4-oxo-6,9,12-trioxa-3-azatetradecanoyl)-4-hydroxy-N—((S)-1-(4-(4-methylthiazol-5-yl)phenyl)ethyl)pyrrolidine-2-carboxamide]	without any visual impact to cell health	
< 35	CNc1ccc(-c2nc3ccc(OCCOCCOCC(=O)N[C@H](C(=O)N4C[C@H](O)C[C@H]4C(=O)N[C@@H](C)c4ccc(-c5scnc5C)cc4)C(C)(C)C)cc3s2)cc1 [Exemplary Compound 1, (2S,4R)-1-[(2S)-3,3-dimethyl-2-[[2-[2-[2-[[2-[4-(methylamino)phenyl]-1,3-benzothiazol-6-yl]oxy]ethoxy]ethoxy]acetyl]amino]butanoyl]-4-hydroxy-N-[(1S)-1-[4-(4-methylthiazol-5-yl)phenyl]ethyl]pyrrolidine-2-carboxamide]		
> 120	Cc1ncsc1-c1ccc([C@H](C)NC(=O)[C@@H]2C[C@@H](O)CN2C(=O)[C@@H](NC(=O)COCCOCCOCCOc2ccc3c(c2)Sc2cc([N+](=O)[O-])ccc2N3)C(C)(C)C)cc1 [Exemplary Compound 9, (2S,4R)-1-((S)-2-(tert-butyl)-14-((7-nitro-10H-phenothiazin-3-yl)oxy)-4-oxo-6,9,12-trioxa-3-azatetradecanoyl)-4-hydroxy-N-((S)-1-(4-(4-methylthiazol-5-yl)phenyl)ethyl)pyrrolidine-2-carboxamide]	cytotoxicity	Cytotoxicity at the concentration tested ([1]; listed as 9): cytotoxic

SMILES	remaining activity at 1 µM [2] [%]	Cytotoxicity at the concentration tested [1]	other results
O=C1CCC(N2C(=O)c3ccc(OCCCCCN4CCC(O[C@H]5C[C@H](Oc6ccc(CN7C(=O)C(=CC=Cc8ccc([N+](=O)[O-])cc8)c8ccccc87)cc6)C5)CC4)cc3C2=O)C(=O)N1 (stereo partly shown) [Exemplary Compound 31, 2-(2,6-dioxopiperidin-3-yl)-5-((5-(4-((1r,3r)-3-(4-(((Z)-3-((E)-3-(4-nitrophenyl)allylidene)-2-oxoindolin-1-yl)methyl)phenoxy)cyclobutoxy)piperidin-1-yl)pentyl)oxy)isoindoline-1,3-dione]	70 to 120		
